Results: paper PMC7407272, “Induction of Lysosome Membrane Permeabilization as a Therapeutic Strategy to Target Pancreatic Cancer Stem Cells” (Cancers, 2020)

Legend:
PDAC2 cells = assay: CD133 flow cytometry; assay type: cell-based, human; conditions: 1.25 or 2.5 µM, 72 h
Method: Cells were analyzed with a 4-laser Attune NxT Acoustic Cytometer (ThermoFisher Scientific). […] For lysosomes quantification, Acridine Orange (AO) (A1301, Thermo Fisher Scientific, Waltham, MA, USA) or Lysotracker Deep Red (DR) (L12492, Molecular probes, Life Technologies, Waltham, MA, USA) were used. AO fluorescence was assessed with two combinations of excitation and emission spectra: BL1 (Ex488/Em695/40, equal to the far-red channel (>670 nm)) and BL3 (Ex488/Em695/40, equal to the far-red channel (>670 nm)) Lysotracker DR fluorescence was assessed with RL1 (Ex638/Em670/14). […] For all assays, DAPI was used to mark and exclude dead cells, and data were analyzed using the software FlowJo v9.3 (Tree Star Inc., Ashland, OR, USA).
Figure S3. […] Apoptosis was determined 72 h post treatment initiation. […]

FES = target: T1, FES (Homo sapiens, UniProt P07332); assay: KINOMEscan; assay type: binding; conditions: read-out: % Ctrl
T1 construct: purchased DiscoveRx KINOMEscan
T1 sequence (P07332 whole entry): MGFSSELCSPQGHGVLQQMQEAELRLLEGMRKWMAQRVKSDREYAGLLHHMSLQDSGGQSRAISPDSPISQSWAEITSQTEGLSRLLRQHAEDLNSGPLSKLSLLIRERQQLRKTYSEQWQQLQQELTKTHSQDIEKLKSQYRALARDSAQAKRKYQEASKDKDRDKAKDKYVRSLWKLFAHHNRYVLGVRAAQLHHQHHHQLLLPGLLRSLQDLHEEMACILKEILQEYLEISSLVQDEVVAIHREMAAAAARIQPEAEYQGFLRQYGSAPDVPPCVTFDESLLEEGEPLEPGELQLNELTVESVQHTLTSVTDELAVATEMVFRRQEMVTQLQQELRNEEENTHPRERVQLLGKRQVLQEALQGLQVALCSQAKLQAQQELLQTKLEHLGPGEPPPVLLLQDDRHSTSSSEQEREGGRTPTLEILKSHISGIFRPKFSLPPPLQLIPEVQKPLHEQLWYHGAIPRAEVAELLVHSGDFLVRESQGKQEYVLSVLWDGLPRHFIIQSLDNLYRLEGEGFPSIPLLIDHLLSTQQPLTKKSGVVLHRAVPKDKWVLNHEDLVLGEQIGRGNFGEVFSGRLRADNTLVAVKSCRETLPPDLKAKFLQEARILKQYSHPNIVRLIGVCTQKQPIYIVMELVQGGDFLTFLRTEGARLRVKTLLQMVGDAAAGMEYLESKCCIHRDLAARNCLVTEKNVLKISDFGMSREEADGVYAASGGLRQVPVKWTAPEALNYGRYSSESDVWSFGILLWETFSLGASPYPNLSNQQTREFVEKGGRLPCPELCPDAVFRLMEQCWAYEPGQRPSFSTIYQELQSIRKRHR

ABL1(F317L)-P = target: T2, ABL1(F317L)-P (Homo sapiens, UniProt P00519, F317L); assay: KINOMEscan; assay type: binding; conditions: read-out: % Ctrl
T2 construct: purchased DiscoveRx KINOMEscan

FGFR4 = target: T3, FGFR4 (Homo sapiens, UniProt P22455); assay: KINOMEscan; assay type: binding; conditions: read-out: % Ctrl
T3 construct: purchased DiscoveRx KINOMEscan

PFTK1 = target: T4, PFTK1 (Homo sapiens, UniProt O94921); assay: KINOMEscan; assay type: binding; conditions: read-out: % Ctrl
T4 construct: purchased DiscoveRx KINOMEscan
T4 sequence (O94921 whole entry): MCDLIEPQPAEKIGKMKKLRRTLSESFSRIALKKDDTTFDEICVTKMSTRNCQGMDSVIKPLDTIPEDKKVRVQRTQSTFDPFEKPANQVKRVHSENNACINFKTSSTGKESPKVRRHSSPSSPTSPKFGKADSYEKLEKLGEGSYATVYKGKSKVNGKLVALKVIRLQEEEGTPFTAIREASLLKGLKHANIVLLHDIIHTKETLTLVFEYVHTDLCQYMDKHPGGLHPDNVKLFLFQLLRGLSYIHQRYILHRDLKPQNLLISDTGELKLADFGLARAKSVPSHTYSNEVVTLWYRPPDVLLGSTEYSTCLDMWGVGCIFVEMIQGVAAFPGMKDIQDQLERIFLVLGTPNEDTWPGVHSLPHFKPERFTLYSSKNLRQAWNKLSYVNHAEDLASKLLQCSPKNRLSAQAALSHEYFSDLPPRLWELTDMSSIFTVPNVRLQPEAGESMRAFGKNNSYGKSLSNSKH

PHKG1 = target: T5, PHKG1 (Homo sapiens, UniProt Q16816); assay: KINOMEscan; assay type: binding; conditions: read-out: % Ctrl
T5 construct: purchased DiscoveRx KINOMEscan

FLT3(D835H) = target: T6, FLT3(D835H) (Homo sapiens, UniProt P36888, D835H); assay: KINOMEscan; assay type: binding; conditions: read-out: % Ctrl
T6 construct: purchased DiscoveRx KINOMEscan

ADCK4 = target: T7, ADCK4 (Homo sapiens, UniProt Q96D53); assay: KINOMEscan; assay type: binding; conditions: read-out: % Ctrl
T7 construct: purchased DiscoveRx KINOMEscan
T7 sequence (Q96D53 whole entry): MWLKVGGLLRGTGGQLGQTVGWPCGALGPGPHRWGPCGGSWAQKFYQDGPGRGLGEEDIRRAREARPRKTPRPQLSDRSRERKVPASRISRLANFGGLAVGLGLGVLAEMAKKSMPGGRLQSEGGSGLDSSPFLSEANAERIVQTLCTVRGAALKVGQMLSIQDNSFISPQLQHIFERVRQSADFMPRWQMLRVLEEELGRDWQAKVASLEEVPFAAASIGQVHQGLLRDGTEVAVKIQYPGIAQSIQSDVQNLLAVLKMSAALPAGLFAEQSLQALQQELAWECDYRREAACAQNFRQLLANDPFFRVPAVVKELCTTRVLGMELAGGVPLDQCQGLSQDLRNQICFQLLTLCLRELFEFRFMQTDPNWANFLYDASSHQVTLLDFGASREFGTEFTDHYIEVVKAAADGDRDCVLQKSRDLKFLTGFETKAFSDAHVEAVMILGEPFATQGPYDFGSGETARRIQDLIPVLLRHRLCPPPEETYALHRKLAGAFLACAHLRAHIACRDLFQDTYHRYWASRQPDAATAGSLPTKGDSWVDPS

GRK3 = target: T8, GRK3 (Homo sapiens, UniProt P35626); assay: KINOMEscan; assay type: binding; conditions: read-out: % Ctrl
T8 construct: purchased DiscoveRx KINOMEscan

ALK = target: T9, ALK (Homo sapiens, UniProt Q9UM73); assay: KINOMEscan; assay type: binding; conditions: read-out: % Ctrl
T9 construct: purchased DiscoveRx KINOMEscan

IKK-beta = target: T10, IKK-beta (Homo sapiens, UniProt O14920); assay: KINOMEscan; assay type: binding; conditions: read-out: % Ctrl
T10 construct: purchased DiscoveRx KINOMEscan

BUB1 = target: T11, BUB1 (Homo sapiens, UniProt O43683); assay: KINOMEscan; assay type: binding; conditions: read-out: % Ctrl
T11 construct: purchased DiscoveRx KINOMEscan
T11 sequence (O43683 whole entry): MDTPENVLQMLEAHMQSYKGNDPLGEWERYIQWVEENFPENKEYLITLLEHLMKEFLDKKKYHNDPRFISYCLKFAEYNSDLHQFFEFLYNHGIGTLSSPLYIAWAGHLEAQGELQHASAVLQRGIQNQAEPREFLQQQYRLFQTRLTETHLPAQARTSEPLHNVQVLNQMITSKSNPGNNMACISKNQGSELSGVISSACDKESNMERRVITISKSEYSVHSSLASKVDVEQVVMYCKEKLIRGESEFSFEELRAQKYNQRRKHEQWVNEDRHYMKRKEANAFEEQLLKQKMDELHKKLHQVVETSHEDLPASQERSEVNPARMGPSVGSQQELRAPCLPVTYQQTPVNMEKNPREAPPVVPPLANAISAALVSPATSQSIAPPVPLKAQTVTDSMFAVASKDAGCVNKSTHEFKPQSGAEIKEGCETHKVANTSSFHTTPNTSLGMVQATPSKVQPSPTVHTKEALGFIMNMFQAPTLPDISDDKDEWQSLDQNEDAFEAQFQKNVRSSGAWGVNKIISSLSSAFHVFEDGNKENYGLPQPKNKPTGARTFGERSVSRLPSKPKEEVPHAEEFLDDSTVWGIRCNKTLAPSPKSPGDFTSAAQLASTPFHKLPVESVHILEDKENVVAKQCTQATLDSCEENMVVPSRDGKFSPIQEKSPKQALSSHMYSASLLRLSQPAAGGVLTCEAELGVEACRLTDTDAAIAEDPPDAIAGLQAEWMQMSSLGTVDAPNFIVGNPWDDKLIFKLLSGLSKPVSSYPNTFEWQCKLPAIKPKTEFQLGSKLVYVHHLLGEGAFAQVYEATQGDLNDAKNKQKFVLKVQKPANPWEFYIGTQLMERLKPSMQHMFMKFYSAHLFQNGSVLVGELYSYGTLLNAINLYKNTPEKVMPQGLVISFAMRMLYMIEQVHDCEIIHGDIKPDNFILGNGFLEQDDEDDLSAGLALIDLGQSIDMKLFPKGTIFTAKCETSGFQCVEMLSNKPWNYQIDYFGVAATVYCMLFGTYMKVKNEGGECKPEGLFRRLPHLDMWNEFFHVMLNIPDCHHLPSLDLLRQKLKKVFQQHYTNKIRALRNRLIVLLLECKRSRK

CDK2 = target: T12, CDK2 (Homo sapiens, UniProt P24941); assay: KINOMEscan; assay type: binding; conditions: read-out: % Ctrl
T12 construct: purchased DiscoveRx KINOMEscan

LKB1 = target: T13, LKB1 (Homo sapiens, UniProt Q15831); assay: KINOMEscan; assay type: binding; conditions: read-out: % Ctrl
T13 construct: purchased DiscoveRx KINOMEscan
T13 sequence (Q15831 whole entry): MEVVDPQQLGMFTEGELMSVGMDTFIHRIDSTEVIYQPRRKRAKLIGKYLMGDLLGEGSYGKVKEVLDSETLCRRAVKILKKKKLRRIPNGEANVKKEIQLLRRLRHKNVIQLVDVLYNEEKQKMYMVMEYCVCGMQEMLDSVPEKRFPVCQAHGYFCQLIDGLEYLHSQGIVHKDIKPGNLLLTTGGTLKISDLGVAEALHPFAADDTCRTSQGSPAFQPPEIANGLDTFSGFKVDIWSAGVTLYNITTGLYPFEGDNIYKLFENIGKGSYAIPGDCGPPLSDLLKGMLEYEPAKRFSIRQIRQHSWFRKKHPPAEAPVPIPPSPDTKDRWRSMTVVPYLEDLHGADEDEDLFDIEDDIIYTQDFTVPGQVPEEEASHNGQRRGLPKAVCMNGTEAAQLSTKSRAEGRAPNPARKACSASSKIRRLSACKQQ

CHEK1 = target: T14, CHEK1 (Homo sapiens, UniProt O14757); assay: KINOMEscan; assay type: binding; conditions: read-out: % Ctrl
T14 construct: purchased DiscoveRx KINOMEscan

MAPKAPK2 = target: T15, MAPKAPK2 (Homo sapiens, UniProt P49137); assay: KINOMEscan; assay type: binding; conditions: read-out: % Ctrl
T15 construct: purchased DiscoveRx KINOMEscan

MARK2 = target: T16, MARK2 (Homo sapiens, UniProt Q7KZI7); assay: KINOMEscan; assay type: binding; conditions: read-out: % Ctrl
T16 construct: purchased DiscoveRx KINOMEscan

MAST1 = target: T17, MAST1 (Homo sapiens, UniProt Q9Y2H9); assay: KINOMEscan; assay type: binding; conditions: read-out: % Ctrl
T17 construct: purchased DiscoveRx KINOMEscan

SLK = target: T18, SLK (Homo sapiens, UniProt Q9H2G2); assay: KINOMEscan; assay type: binding; conditions: read-out: % Ctrl
T18 construct: purchased DiscoveRx KINOMEscan

MEK6 = target: T19, MEK6 (Homo sapiens, UniProt P52564); assay: KINOMEscan; assay type: binding; conditions: read-out: % Ctrl
T19 construct: purchased DiscoveRx KINOMEscan

SRPK3 = target: T20, SRPK3 (Homo sapiens, UniProt Q9UPE1); assay: KINOMEscan; assay type: binding; conditions: read-out: % Ctrl
T20 construct: purchased DiscoveRx KINOMEscan

TAK1 = target: T21, TAK1 (Homo sapiens, UniProt O43318); assay: KINOMEscan; assay type: binding; conditions: read-out: % Ctrl
T21 construct: purchased DiscoveRx KINOMEscan

TIE2 = target: T22, TIE2 (Homo sapiens, UniProt Q02763); assay: KINOMEscan; assay type: binding; conditions: read-out: % Ctrl
T22 construct: purchased DiscoveRx KINOMEscan

EPHA6 = target: T23, EPHA6 (Homo sapiens, UniProt Q9UF33); assay: KINOMEscan; assay type: binding; conditions: read-out: % Ctrl
T23 construct: purchased DiscoveRx KINOMEscan

EPHB1 = target: T24, EPHB1 (Homo sapiens, UniProt P54762); assay: KINOMEscan; assay type: binding; conditions: read-out: % Ctrl
T24 construct: purchased DiscoveRx KINOMEscan
T24 sequence (P54762 18-984): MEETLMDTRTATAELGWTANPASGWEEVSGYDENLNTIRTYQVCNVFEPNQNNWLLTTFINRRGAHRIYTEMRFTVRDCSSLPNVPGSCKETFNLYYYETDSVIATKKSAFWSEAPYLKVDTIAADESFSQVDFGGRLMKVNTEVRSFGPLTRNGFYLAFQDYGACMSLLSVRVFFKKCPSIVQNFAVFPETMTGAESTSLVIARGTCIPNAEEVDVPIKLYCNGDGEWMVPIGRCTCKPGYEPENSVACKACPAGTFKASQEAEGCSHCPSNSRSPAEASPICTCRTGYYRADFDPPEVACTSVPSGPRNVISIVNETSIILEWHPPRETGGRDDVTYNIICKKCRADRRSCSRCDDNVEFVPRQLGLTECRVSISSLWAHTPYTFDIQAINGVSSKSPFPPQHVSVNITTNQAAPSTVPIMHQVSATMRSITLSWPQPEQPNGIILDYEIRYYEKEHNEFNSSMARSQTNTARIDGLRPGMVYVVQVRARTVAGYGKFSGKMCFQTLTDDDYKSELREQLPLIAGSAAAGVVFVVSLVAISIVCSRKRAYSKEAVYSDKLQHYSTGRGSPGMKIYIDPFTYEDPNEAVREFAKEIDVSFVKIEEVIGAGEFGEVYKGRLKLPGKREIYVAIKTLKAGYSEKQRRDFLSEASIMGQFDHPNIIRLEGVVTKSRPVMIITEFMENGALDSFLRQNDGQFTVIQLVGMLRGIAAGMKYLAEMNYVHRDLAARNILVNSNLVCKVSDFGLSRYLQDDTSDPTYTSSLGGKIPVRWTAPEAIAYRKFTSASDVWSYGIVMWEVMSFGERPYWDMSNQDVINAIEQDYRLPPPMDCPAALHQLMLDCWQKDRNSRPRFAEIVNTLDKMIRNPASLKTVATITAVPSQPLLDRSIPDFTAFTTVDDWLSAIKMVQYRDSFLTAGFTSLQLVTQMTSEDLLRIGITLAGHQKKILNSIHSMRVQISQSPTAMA

WNK1 = target: T25, WNK1 (Homo sapiens, UniProt Q9H4A3); assay: KINOMEscan; assay type: binding; conditions: read-out: % Ctrl
T25 construct: purchased DiscoveRx KINOMEscan

PAK2 = target: T26, PAK2 (Homo sapiens, UniProt Q13177); assay: KINOMEscan; assay type: binding; conditions: read-out: % Ctrl
T26 construct: purchased DiscoveRx KINOMEscan
T26 sequence (Q13177 whole entry): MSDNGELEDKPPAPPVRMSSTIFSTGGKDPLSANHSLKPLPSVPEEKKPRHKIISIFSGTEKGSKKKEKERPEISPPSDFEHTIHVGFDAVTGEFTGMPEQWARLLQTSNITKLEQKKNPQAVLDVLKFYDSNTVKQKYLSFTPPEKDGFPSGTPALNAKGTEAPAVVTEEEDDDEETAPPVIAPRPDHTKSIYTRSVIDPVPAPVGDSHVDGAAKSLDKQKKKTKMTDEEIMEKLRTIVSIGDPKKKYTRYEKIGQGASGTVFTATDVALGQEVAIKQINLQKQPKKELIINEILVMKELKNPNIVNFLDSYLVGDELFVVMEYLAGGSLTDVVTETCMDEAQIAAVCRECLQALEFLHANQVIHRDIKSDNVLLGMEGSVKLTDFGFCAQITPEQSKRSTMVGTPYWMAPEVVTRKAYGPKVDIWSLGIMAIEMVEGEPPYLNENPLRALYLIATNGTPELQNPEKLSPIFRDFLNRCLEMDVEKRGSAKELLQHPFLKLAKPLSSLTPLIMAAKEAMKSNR

YES = target: T27, YES (Homo sapiens, UniProt P07947); assay: KINOMEscan; assay type: binding; conditions: read-out: % Ctrl
T27 construct: purchased DiscoveRx KINOMEscan

`CN1CCC(CNc2ccc3ncc(C(=O)Nc4cccc(OC(F)(F)F)c4)n3n2)CC1` [Cpd 2] was tested, and the “percentage of CD133+ cells” value (PDAC2 cells) was “reduced”, the remaining binding at 1 µM (FES) was 87% and the remaining binding at 1 µM (ABL1(F317L)-P) was 100%. The remaining binding at 1 µM (FGFR4) was 100%, the remaining binding at 1 µM (PFTK1) was 97% and the remaining binding at 1 µM (PHKG1) was 100%. For the same compound, the remaining binding at 1 µM (FLT3(D835H)) was 74%, the remaining binding at 1 µM (ADCK4) was 99% and the remaining binding at 1 µM (GRK3) was 76%. For the same compound, the remaining binding at 1 µM (ALK) was 100%, the remaining binding at 1 µM (IKK-beta) was 100% and the remaining binding at 1 µM (BUB1) was 62%. The remaining binding at 1 µM (CDK2) was 100%, the remaining binding at 1 µM (LKB1) was 96% and the remaining binding at 1 µM (CHEK1) was 86%. It also gave a remaining binding at 1 µM (MAPKAPK2) of 94%, a remaining binding at 1 µM (MARK2) of 96% and a remaining binding at 1 µM (MAST1) of 59%. For the same compound, the remaining binding at 1 µM (SLK) was 79%, the remaining binding at 1 µM (MEK6) was 98% and the remaining binding at 1 µM (SRPK3) was 77%. It also gave a remaining binding at 1 µM (TAK1) of 70%, a remaining binding at 1 µM (TIE2) of 100% and a remaining binding at 1 µM (EPHA6) of 86%. The remaining binding at 1 µM (EPHB1) was 97%, the remaining binding at 1 µM (WNK1) was 100% and the remaining binding at 1 µM (PAK2) was 94%. For the same compound, the remaining binding at 1 µM (YES) was 95%.
